Results reported in patent US12365686B2, “Compound as porcupine inhibitor and use thereof” (JIANGSU KANION PHARMACEUTICAL CO., LTD., priority 2019, dated 2025).
Structures can show the parent of a compound that is named as a salt.

What was measured:
Capan-2 cells = assay: Anti-proliferative activity on Capan-2 cells; type: cell-based; details: Homo sapiens, Capan-2, 120 h; 5 days, CellTiter-Glo
Protocol: 2. Assay of Anti-Proliferative Activity on Capan-2 Cells
Capan-2 cells were planted in a white 96-well plate with 80 μL of cell suspension per well, which contained 5000 Capan-2 cells. The cell plate was placed in a carbon dioxide incubator for culture overnight.
The assay compound was serially diluted 3-fold with a discharge gun to the 9th concentration, that is, from 200 μM to 30 nM, in duplicate. 78 μL of medium was added to the middle plate, and then 2 μL of the serially diluted compound was transferred to each well of the middle plate according to the corresponding position. After mixing, 20 μL of the mixture was transferred to each well of the cell plate. The cell plate was incubated in a carbon dioxide incubator for 5 days. Another cell plate was prepared, and read on the day of drug addition. The signal value was used as the maximum value (The value of Max in the equation below) in data analysis. 25 μL of chemiluminescence detection reagent for cell viability was added to each well of this cell plate, and this cell plate was incubated at room temperature for 10 minutes to stabilize the luminescence signal. A multi-label analyzer was used to read results.
After the cell plate was cultured for 5 days, 25 μL of Promega CellTiter-Glo reagent was added to each well of the cell plate. The cell plate was incubated at room temperature for 10 minutes to stabilize the luminescence signal. A multi-label analyzer was used to read results.
The value of IC50 can be obtained by curve fitting. Table 2 provides the inhibitory activity of the compounds of the present disclosure on Capan-2 cell proliferation.

[1] = tested on: STF reporter gene for WNT pathway (Porcupine of the Wnt signaling pathway); assay: Inhibitory activity on Super-Top-Flash (STF) reporter gene; type: cell-based; details: HEK293 STF and L wnt3A cells 1:1, 24 hours, Bright-Glo
Protocol: 1. Assay of Inhibitory Activity on Super-Top-Flash (STF) Reporter Gene
HEK293 STF and L wnt3A cells were planted at a ratio of 1:1 in a white 96-well plate with 80 μL of cell suspension per well, which contained 20,000 HEK293 STF cells and 20,000 L wnt3A cells. The cell plate was placed in a carbon dioxide incubator for culture overnight.
The assay compound was serially diluted 5-fold with a discharge gun to the 8th concentration, that is, from 400 μM to 5.12 nM, in duplicate. 78 μL of medium was added to the middle plate, and then 2 μL of the serially diluted compound was transferred to each well of the middle plate according to the corresponding position. After mixing, 20 μL of the mixture was transferred to each well of the cell plate. The cell plate was placed in a carbon dioxide incubator for 24 hours.
100 μL of Promega Bright-Glo reagent was added to each well of the cell plate, and the cell plate was incubated at room temperature for 10 minutes to stabilize the luminescence signal. A multi-label analyzer was used to read results.
The original data of the multi-label analyzer was used for calculation, and the value of IC50 can be obtained by curve fitting. Table 1 provides data of the inhibitory activity of the compounds of the present disclosure on the Wnt signaling pathway.

[2] = Pharmacokinetic evaluation of compounds in mice; type: in vivo; details: mouse, plasma, male CD-1 mice; for clearance / bioavailability / half-life / Vd: IV 0.5 mg/kg; for bioavailability / AUC(0-t): PO 2.5 mg/kg; for half-life: read-out: T1/2 IV (converted); for Vd: read-out: Vdss; for AUC(0-t): read-out: AUC0-last PO; for Cmax: single dose, route not stated (IV 0.5 mg/kg, PO 2.5 mg/kg)
Protocol: Assay 4: Pharmacokinetic Evaluation of Compounds
Assay purpose: Pharmacokinetics of compounds in […] mice was assayed.
CD-1 mice (male, 7-9 weeks old, Shanghai Slack)
The pharmacokinetic characteristics of rodents after intravenous (IV) and oral (PO) administration of compounds were assayed by standard protocols. In the assay, mice were given a single intravenous injection and oral administration. The vehicle for intravenous injection was water. The oral vehicle was 0.5% hypromellose. Four male CD-1 mice were used in this project. Two mice were administered intravenously at a dose of 0.5 mg/kg, and plasma samples were collected at 0 h (before administration) and 0.083, 0.25, 0.5, 1, 2, 4, 8, and 24 h after administration. The other two mice were orally administered by gavage at a dose of 2.5 mg/kg, and plasma samples were collected at 0 h (before administration) and 0.25, 0.5, 1, 2, 4, 8, and 24 h after administration. Whole blood samples within 24 hours were collected, and centrifuged at 3000 g for 15 minutes. The supernatant was separated to obtain a plasma sample, and protein was precipitated by adding 4 times volume of acetonitrile solution containing internal standard. The mixture was centrifuged to obtain a supernatant, and an equal volume of water was added to the obtained supernatant. The mixture was then centrifuged to obtain a supernatant for injection. The blood drug concentration was quantitatively analyzed by LC-MS/MS analysis method, and pharmacokinetic parameters were calculated, such as peak concentration (Cmax), clearance rate (CL), half-life (T1/2), […] (Vdss), area under the drug-time curve (AUC0-last), and bioavailability (F), etc.
The assay results are shown in Table 4: The compounds of the present disclosure have good pharmacokinetic properties.

[3] = tested on: human pancreatic cancer Capan-2 xenograft tumor; assay: In vivo drug efficacy on Capan-2 transplanted tumor in nude mice; details: for T/C % / TGI %: 5 mg/Kg, BID, 31 days, Capan-2 Xenograft model
Protocol: 3. Assay of In Vivo Drug Efficacy on Capan-2 Transplanted Tumor in Nude Mice
Capan-2 cells were cultured in McCoy's 5A medium, containing 10% fetal bovine serum FBS, in a 37° C. incubator with 5% CO2. Tumor cells were collected after passaging and growing to a suitable concentration and during the logarithmic growth phase. The cells resuspended in McCoy's 5A medium were counted and the cell suspension was adjusted to a concentration of 2×10^7/mL for inoculation.
Establishment of human pancreatic cancer Capan-2 xenograft tumor. Cells were collected and the concentration was adjusted to 2×10^7 (resuspend with McCoy's 5A medium to a cell suspension containing 50% Martigel). Under aseptic conditions, 0.1 mL of tumor cells was injected subcutaneously into the right back of the mouse, and the number of cells inoculated per mouse was 2×10^6. After the tumor was grown to a certain size, digital vernier calipers was used to measure the length (a) and width (b) of the tumor, and the tumor volume was calculated. The calculation formula of tumor volume (TV) was: TV=a×b^2/2.
Capan-2 tumor cells were inoculated. When the tumor was grown to about 150 cubic millimeters, mice were divided into groups with 6 mice in each group. The day of grouping was regarded as day 0, and the drug was administered on the day of grouping. During the assay, the animal's body weight and tumor size were measured twice a week, and the animal's clinical symptoms were observed and recorded every day. For each administration, the most recently weighed animal body weight was referred to.
The evaluation index of anti-tumor activity is relative tumor proliferation rate T/C (%), wherein T/C (%)>40% means ineffective, and T/C (%)<40% and statistically P<0.05 means effective. The calculation formula of T/C (%) is: T/C (%)=(TRTV/CRTV)×100%. TRTV is relative tumor volume of the treatment group, and CRTV is relative tumor volume of the negative control group. TGI (%)^b tumor inhibition rate=(average tumor volume or weight of negative control group-average tumor volume or weight of administration group)/average tumor volume or weight of negative control group×100%. TGI (%)^a=[(1−(average tumor volume of a certain administration group at the time of measurement-average tumor volume of the administration group at the beginning of the administration))/(average tumor volume of vehicle control group at the time of measurement-average tumor volume of the vehicle control group at the beginning of the administration)]×100%.

IC50 [1] | SMILES | IC50 (Capan-2 cells) | also measured
0.017 nM | Cc1cc(-c2ccc(CNc3nccn4c(-c5ccccc5)cnc34)cn2)ccn1 [Compound 19] | 4.61 nM | 
 | Cc1cc(-c2ncc(CNc3nccn4c(-c5cc(F)cc(F)c5)cnc34)cc2OC2CCN(C)CC2)ccn1 [Compound 34] | 1.9 nM | 
0.23 nM | Cc1cc(-c2ccc(CNc3nccn4c(-c5ccccc5)cnc34)cc2C)ccn1 [Compound 17] | 1.45 nM | 
0.15 nM | Cc1cc(-c2ncc(CNc3nccn4c(C(=O)Nc5ccccc5)cnc34)cc2C)ccn1 [15 (formate)] |  | 
8.95 nM | COc1ccc(-c2cnc3c(NCc4cnc(-c5ccnc(C)c5)c(C)c4)nccn23)cc1 [Compound 9 (formate)] | 103 nM | 
13.5 nM | Cc1cc(-c2ncc(CNc3nccn4c(C5CC5)cnc34)cc2C)ccn1 [Compound 10] | > 1000 nM | 
 | Cc1cc(-c2ncc(C(C)Nc3nccn4c(-c5ccccc5)cnc34)cc2C)ccn1 (stereo not drawn) [Compound 32 (hydrochloride)] | 3.04 nM | 
0.56 nM | Cc1cc(-c2ncc(CNc3nccn4c(C5CCN(C(C)C)CC5)cnc34)cc2C)ccn1 [Compound 13 (formate)] |  | 
 | Cc1cc(-c2ncc(C(CO)Nc3nccn4c(-c5ccccc5)cnc34)cc2C)ccn1 (stereo not drawn) [Compound 35] | 10.1 nM | 
 | Cc1cc(-c2ccc(CNc3nccn4c(-c5ccccc5)cnc34)cc2N(C)C)ccn1 [Compound 23] | 0.74 nM | 
0.38 nM | Cc1cc(-c2ncc(CNc3nccn4c(-c5cccc(F)c5)cnc34)cc2C)ccn1 [Compound 29 (hydrochloride)] | 0.35 nM | clearance [2]: 5.05 mL/min/kg; bioavailability [2]: 89%; half-life [2]: 2.78 h; Vd [2]: 0.641 L/kg; AUC(0-t) [2]: 17.3 µM·h; Cmax [2]: 2640 nM
0.12 nM | Cc1cc(-c2ncc(CNc3nccn4c(-c5cccnc5)cnc34)cc2C)ccn1 [Compound 2] | 4.26 nM | 
0.0128 nM | Cc1cc(CNc2nccn3c(-c4ccccc4)cnc23)cnc1-c1ccnn1C [Compound 18] | 19.1 nM | 
0.14 nM | Cc1cc(-c2ncc(CNc3nccn4c(-c5cnn(C)c5)cnc34)cc2C)ccn1 [Compound 4] | 964 nM | 
9.7 nM | Cc1cc(-c2ncc(CNc3nccn4c(N5CCNCC5)cnc34)cc2C)ccn1 [Compound 5] |  | 
 | Cc1cc(-c2ccc(CNc3nccn4c(-c5ccccc5)cnc34)cc2C#N)ccn1 [Compound 22 (formate)] | 1.24 nM | clearance [2]: 8.24 mL/min/kg; bioavailability [2]: 71.9%; half-life [2]: 3.13 h; Vd [2]: 1.09 L/kg; AUC(0-t) [2]: 11.9 µM·h; Cmax [2]: 1820 nM
 | Cc1cc(-c2ncc(CC(=O)Nc3ccc(-c4cnccn4)cn3)cc2C)ccn1 [LGK974, reference compound] |  | inhibitory effect on human pancreatic cancer Capan-2 xenograft tumor (in words) ([3]; 5 mg/Kg BID (twice a day) for 31 days): inhibitory effect; T/C % [3]: 36.33%; TGI % [3]: 78.3%
< 0.001 nM | CC(=O)N1CCC(c2cnc3c(NCc4cnc(-c5ccnc(C)c5)c(C)c4)nccn23)CC1 [Compound 14] |  | 
 | Cc1cc(-c2ncc(CNc3nccn4c(-c5ccccc5)cnc34)cc2F)ccn1 [Compound 21] | 0.43 nM | 
< 0.001 nM | Cc1cc(-c2ncc(CNc3nccn4c(C(=O)N(C)C)cnc34)cc2C)ccn1 [Compound 16] |  | 
 | Cc1cc(-c2ncc(CNc3nccn4c(-c5cc(F)cc(F)c5)cnc34)cc2OCCN(C)C)ccn1 [Compound 33] | 2.3 nM | T/C % [3]: 17.71%; TGI % [3]: 92.6%; clearance [2]: 35.1 mL/min/kg; bioavailability [2]: 37.4%; half-life [2]: 3.69 h; Vd [2]: 9.52 L/kg; AUC(0-t) [2]: 0.975 µM·h; Cmax [2]: 107 nM
0.05 nM | Cc1cc(-c2ncc(CNc3nccn4c(-c5ccccc5)ncc34)cc2C)ccn1 [Compound 11] |  | T/C % [3]: 31.29%; TGI % [3]: 82.8%
0.4 nM | COc1cc(-c2ncc(CNc3nccn4c(-c5ccccc5)cnc34)cc2C)ccn1 [Compound 20] | 18.5 nM | 
 | Cc1cc(-c2ncc(CNc3nccn4c(-c5cc(F)cc(F)c5)cnc34)cc2F)ccn1 [Compound 36 (formate)] | 0.21 nM | T/C % [3]: 21%; TGI % [3]: 88.86%; clearance [2]: 6.5 mL/min/kg; bioavailability [2]: 50.6%; half-life [2]: 3.05 h; Vd [2]: 1.35 L/kg; AUC(0-t) [2]: 7.23 µM·h; Cmax [2]: 980 nM
0.86 nM | Cc1cc(-c2ncc(CNc3nccn4c(-c5cccc(Cl)c5)cnc34)cc2C)ccn1 [Compound 28 (hydrochloride)] | 1.43 nM | clearance [2]: 4.16 mL/min/kg; bioavailability [2]: 66.6%; half-life [2]: 2.6 h; Vd [2]: 0.553 L/kg; AUC(0-t) [2]: 15.1 µM·h; Cmax [2]: 2340 nM
 | Cc1cc(-c2ccc(CNc3nccn4c(-c5ccccc5)cnc34)c(F)c2)ccn1 [Compound 31] | 4.7 nM | 
6.56 nM | Cc1cc(-c2ncc(CNc3nccn4c(-c5ccc(C#N)cc5)cnc34)cc2C)ccn1 [Compound 8] | 109 nM | 
0.58 nM | CC(=O)N1CCN(c2cnc3c(NCc4cnc(-c5ccnc(C)c5)c(C)c4)nccn23)CC1 [Compound 6] |  | 
0.96 nM | Cc1cc(-c2ncc(CNc3nccn4c(-c5ccc(F)cc5)cnc34)cc2C)ccn1 [Compound 3] |  | 
